Assay results from article doi:10.1101/854513v2 (biorxiv, 2020).
Changes are numbered by the printed parent chain. Like-named read-outs stand apart in the source and are kept apart here.

Tests used:
hM4Di [1] = target: T1, hM4Di (Homo sapiens, UniProt P08173, A203G/Y113C); assay: BRET G protein dissociation; format: cell-based
T1 sequence (P08173 1-479 Y113C/A203G): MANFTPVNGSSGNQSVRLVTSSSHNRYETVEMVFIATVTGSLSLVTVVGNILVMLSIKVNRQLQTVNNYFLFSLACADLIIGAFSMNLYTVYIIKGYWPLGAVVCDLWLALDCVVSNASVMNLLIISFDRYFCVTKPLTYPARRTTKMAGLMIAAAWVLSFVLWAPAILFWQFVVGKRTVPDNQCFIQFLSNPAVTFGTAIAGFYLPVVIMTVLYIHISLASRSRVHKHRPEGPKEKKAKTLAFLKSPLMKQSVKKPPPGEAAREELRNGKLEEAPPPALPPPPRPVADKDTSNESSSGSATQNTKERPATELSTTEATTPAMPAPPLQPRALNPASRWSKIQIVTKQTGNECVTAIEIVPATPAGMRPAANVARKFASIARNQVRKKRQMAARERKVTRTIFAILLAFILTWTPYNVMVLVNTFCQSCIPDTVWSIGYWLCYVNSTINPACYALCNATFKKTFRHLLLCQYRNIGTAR

hM3Dq [2] = target: T2, hM3Dq (Homo sapiens, UniProt P20309, A239G/Y149C); assay: cell-based
hM3 = hM3 (Homo sapiens, UniProt P20309); assay: biochemical; format: binding
hM3Dq [3] = target: T2, hM3Dq; assay: biochemical; format: binding
hM4 = target: T3, hM4 (Homo sapiens, UniProt P08173); assay: [3H]QNB competition binding
T3 sequence (P08173 1-479): T1 sequence (P08173 1-479 Y113C/A203G) with C113Y, G203A

hM1 = target: T4, hM1 (Homo sapiens, UniProt P11229); assay: radioligand competition binding
T4 sequence (P11229 1-460): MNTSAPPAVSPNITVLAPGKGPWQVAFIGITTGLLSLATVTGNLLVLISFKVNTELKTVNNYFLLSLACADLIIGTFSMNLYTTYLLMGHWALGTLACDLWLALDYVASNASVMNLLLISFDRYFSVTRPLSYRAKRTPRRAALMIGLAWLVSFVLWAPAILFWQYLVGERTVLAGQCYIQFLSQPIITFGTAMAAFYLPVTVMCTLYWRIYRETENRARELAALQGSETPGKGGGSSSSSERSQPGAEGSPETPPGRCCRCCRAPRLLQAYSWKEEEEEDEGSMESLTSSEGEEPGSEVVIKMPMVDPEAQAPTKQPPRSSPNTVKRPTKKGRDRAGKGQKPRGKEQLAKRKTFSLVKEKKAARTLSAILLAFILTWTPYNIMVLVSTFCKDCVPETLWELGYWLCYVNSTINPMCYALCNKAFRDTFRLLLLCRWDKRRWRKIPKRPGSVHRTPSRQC

hM4Di [4] = target: T1, hM4Di; assay: [3H]QNB competition binding
hM5 = target: T5, hM5 (Homo sapiens, UniProt P08912); assay: radioligand competition binding
T5 sequence (P08912 1-532): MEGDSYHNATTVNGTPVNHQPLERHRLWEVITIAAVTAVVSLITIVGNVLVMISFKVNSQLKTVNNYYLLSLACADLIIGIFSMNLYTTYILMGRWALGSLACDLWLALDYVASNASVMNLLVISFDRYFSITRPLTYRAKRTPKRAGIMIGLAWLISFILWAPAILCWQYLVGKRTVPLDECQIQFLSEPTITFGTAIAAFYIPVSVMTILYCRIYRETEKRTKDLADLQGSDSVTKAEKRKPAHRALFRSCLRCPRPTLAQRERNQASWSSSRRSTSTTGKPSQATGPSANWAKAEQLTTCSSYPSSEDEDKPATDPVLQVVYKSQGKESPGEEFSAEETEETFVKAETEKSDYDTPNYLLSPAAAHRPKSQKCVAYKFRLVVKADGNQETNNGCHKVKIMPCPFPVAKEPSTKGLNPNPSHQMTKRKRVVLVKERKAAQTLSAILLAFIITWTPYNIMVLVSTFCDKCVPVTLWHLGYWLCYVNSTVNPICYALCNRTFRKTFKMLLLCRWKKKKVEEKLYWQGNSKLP

T2 sequence (P20309 whole entry Y149C/A239G): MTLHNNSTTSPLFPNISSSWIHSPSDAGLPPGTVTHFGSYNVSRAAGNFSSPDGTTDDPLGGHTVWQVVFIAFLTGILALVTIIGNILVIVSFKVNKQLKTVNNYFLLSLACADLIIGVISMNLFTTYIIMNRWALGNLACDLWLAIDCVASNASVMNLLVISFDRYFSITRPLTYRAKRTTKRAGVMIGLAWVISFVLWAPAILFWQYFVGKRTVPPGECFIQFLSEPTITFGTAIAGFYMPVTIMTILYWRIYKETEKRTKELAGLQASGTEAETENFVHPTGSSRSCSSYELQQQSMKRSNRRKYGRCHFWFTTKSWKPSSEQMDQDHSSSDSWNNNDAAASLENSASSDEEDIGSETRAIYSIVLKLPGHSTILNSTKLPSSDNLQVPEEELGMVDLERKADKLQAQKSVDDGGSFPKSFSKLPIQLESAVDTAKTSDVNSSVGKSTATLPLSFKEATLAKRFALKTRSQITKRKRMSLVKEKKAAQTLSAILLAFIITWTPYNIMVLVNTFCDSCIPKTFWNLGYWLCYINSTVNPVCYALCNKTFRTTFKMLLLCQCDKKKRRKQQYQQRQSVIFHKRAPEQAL
Sequence of hM3 (P20309 whole entry): as the sequence (P20309 whole entry Y149C/A239G) above, with C149Y, G239A counted along it

Compound	EC50 (hM4Di [1])	EC50 (hM3Dq [2])	Ki (hM3; HEK293T, [3H]QNB […])	Ki (hM3Dq [3])	Ki (hM3)	Ki (hM4)	Ki (hM1)	Ki (hM4Di [4])	Ki (hM5)
c1ccc2c(c1)N=C(N1CCNCC1)c1ccccc1N2 [C21]	2.6 nM	5.2 nM	270 nM	850 nM	–	–	–	–	–
CN1CCN(C2=Nc3ccccc3Nc3ccccc32)CC1 [DCZ, 11-(4-methyl-1-piperazinyl)-5H-dibenzo(b,e)(1,4)diazepine]	0.081 nM	0.13 nM	–	6.3 nM	230 nM	210 nM	83 nM	4.2 nM	55 nM
C[N+]1([O-])CCN(C2=Nc3cc(Cl)ccc3Nc3ccccc32)CC1 [CNO]	7.3 nM	15 nM	–	680 nM	2600 nM	3700 nM	–	360 nM	–
